Measured values taken from patent US11952387B2, “Bicyclic heteroaromatic ring derivative” (priority 2018, dated 2024).

System: HRV14
Experiment: Inhibitory activity against human rhinovirus infection and replication (quantitative real-time PCR)
Format: cell-based
Settings: Human rhinovirus sp., MRC5; 100 nmol/L test compound; MRC-5 cells infected with HRV14 at MOI=0.2; 48 hours; viral load normalized to 18s rRNA; read-out: Percent Inhibition
Experimental: Evaluation of inhibitory activity against human rhinovirus infection and replication (by quantitative real-time PCR)
A required amount of a test compound was weighed off and dissolved in dimethyl sulfoxide (DMSO) to yield a 10 mmol/L stock solution. Next, the stock solution was diluted with a medium for viral infection (minimum essential medium (MEM) supplemented with 2% fetal bovine serum, 5% Tryptose phosphate broth, and 30 mmol/L MgCl2) to prepare 100 nmol/L and 1000 nmol/L of test compound solutions. MRC-5 (human fetal lung fibroblast: ATCC) was suspended at a density of 30000 cells/mL in cell culture medium (MEM supplemented with 10% fetal bovine serum), and 625 μL of the suspension per well was seeded into a 24-well cell culture plate and cultured at 37° C. in 5% CO2. After 72 hours, it was confirmed that the plate had become 80% confluent. The plate was washed with 625 μL of phosphate-buffered physiological saline (Ca/Mg-free; PBS-) once, and 625 μL of the test compound solution prepared just before use was immediately added to the plate. After 30 minutes, the medium was removed followed by addition of 187.5 μL of the test compound solution that had been prepared such that the cells were infected with HRV14 (ATCC) at multiplicity of infection (MOI)=0.2. The cells were then cultured at 35° C. in 5% CO2. After additional 2 hours, 625 μL of the test compound solution prepared just before use was added, and the cells were cultured at 35° C. in 5% CO2. After 48 hours, the cells were washed with 625 μL of PBS- once, and total RNA was extracted from the cells using RNeasy (R) plus kit (Qiagen) according to the manufacturer's instruction. Subsequently, cDNA was synthesized using High-Capacity cDNA Reverse Transcription Kit (Thermo Fisher Scientific). Finally, quantitative real-time PCR was performed in 7500 Fast Real-time PCR system (Life technologies) to measure HRV14 and 18s rRNA. The measurement protocol consisted of the initial denaturation phase at 95° C. for 20 seconds followed by 40 cycles of the denaturation step at 95° C. for 3 seconds and the annealing/elongation step at 60° C. for 30 seconds. The primers used were HRV14 forward primer set forth in SEQ ID NO: 1 and HRV14 reverse primer set forth in SEQ ID NO: 2, and the probe is set forth in SEQ ID NO: 3.
18s rRNA was measured using Eukaryotic 18S rRNA Endogenous Control (Applied Biosystems). According to Equation 1, 18s ribosomal RNA was used as an internal standard to normalize the viral load of HRV14: Viral load of HRV14=The amount of HRV14 in virus-infected cells/the amount of 18s rRNA in virus-infected cells Equation 1
Inhibitory activity of test compounds was calculated as a percent inhibition (%) according to Equation 2: Percent inhibition (%)=[the viral load of HRV in virus-infected cells in the absence of the test compound −the viral load of HRV in virus-infected cells in the presence of the test compound]/[the viral load of HRV in virus-infected cells in the absence of the test compound]×100 Equation 2
The results of using 100 nmol/L test compound solutions were shown in the tables below according to Examples. In the tables, percent inhibition was expressed as follows: percent inhibition >80%: +++, 80%≥percent inhibition >50%: ++, and 50%≥percent inhibition:+.

| SMILES | inhibition at 0.1 µM [%] |
| --- | --- |
| COc1ccc(-c2c(C)nc3sc(C(C)(C)O)nn23)cc1S(=O)(=O)N[C@H]1CC[C@H](O)CC1 [Example 1-1] | 50 to 80 |
| Cc1nc2sc(C(C)(C)O)cn2c1-c1ccc(Cl)c(S(=O)(=O)N[C@H]2CC[C@@H](O)CC2)c1 [Example 1-2] | ≤ 50 |
| Cc1nc2sc(C(C)(C)O)cn2c1-c1ccc(OC(F)(F)F)c(S(=O)(=O)N[C@H]2CC[C@@H](O)CC2)c1 [Example 1-3] | ≤ 50 |
| Cc1nc2sc(C(C)(C)C)cn2c1-c1ccc(Cl)c(S(=O)(=O)N[C@H]2CC[C@@H](O)CC2)c1 [Example 1-4] | > 80 |
| Cc1nc2sc(C3CC3)cn2c1-c1ccc(Cl)c(S(=O)(=O)N[C@H]2CC[C@@H](O)CC2)c1 [Example 1-5] | 50 to 80 |
| COc1ccc(-c2c(C)nc3sc(C(C)C)nn23)cc1S(=O)(=O)N[C@H]1CC[C@@H](O)CC1 [Example 1-6] | > 80 |
| Cc1nc2sc(C(C)(C)O)nn2c1-c1ccc(Cl)c(S(=O)(=O)N[C@H]2CC[C@@H](O)CC2)c1 [Example 1-7] | > 80 |
| Cc1nc2sc(C(C)(C)OC3COC3)cn2c1-c1ccc(Cl)c(S(=O)(=O)N[C@H]2CC[C@@H](O)CC2)c1 [Example 1-8] | 50 to 80 |
| Cc1nc2sc(C(C)C)nn2c1-c1ccc(Cl)c(S(=O)(=O)N[C@H]2CC[C@@H](O)CC2)c1 [Example 1-9] | > 80 |
| Cc1nc2sc(C(C)(C)C)cn2c1-c1ccc(C#N)c(S(=O)(=O)N[C@H]2CC[C@@H](O)CC2)c1 [Example 1-10] | > 80 |
| Cc1nc2sc(C(O)(C(F)(F)F)C(F)(F)F)cn2c1-c1ccc(Cl)c(S(=O)(=O)N[C@H]2CC[C@@H](O)CC2)c1 [Example 1-11] | ≤ 50 |
| COc1ccc(-c2c(C)nc3sc(C(OC)(C(F)(F)F)C(F)(F)F)cn23)cc1S(=O)(=O)N[C@H]1CC[C@@H](O)CC1 [Example 1-12] | > 80 |
| COc1ncc(-c2c(C)nc3sc(C(C)(C)C)cn23)cc1S(=O)(=O)N[C@H]1CC[C@@H](O)CC1 [Example 1-13] | > 80 |
| COc1ccc(-c2c(C)nc3sc(C(C)(C)O)nn23)cc1S(=O)(=O)N[C@H]1CC[C@@H](O)CC1 [Example 1-14] | 50 to 80 |
| COc1ncc(-c2c(C)nc3sc(C4CC4)nn23)cc1S(=O)(=O)N[C@H]1CC[C@@H](O)CC1 [Example 1-16] | 50 to 80 |
| Cc1nc2sc(C(C)(C)O)nn2c1-c1ccc(OC(F)(F)F)c(S(=O)(=O)N[C@H]2CC[C@@H](O)CC2)c1 [Example 1-17] | > 80 |
| COc1ncc(-c2c(C)nc3sc(C(C)(C)C#N)nn23)cc1S(=O)(=O)N[C@H]1CC[C@@H](O)CC1 [Example 1-18] | 50 to 80 |
| Cc1nc2sc(C(C)(C)O)cn2c1-c1ccc(C(F)(F)F)c(S(=O)(=O)N[C@H]2CC[C@@H](O)CC2)c1 [Example 1-19] | > 80 |
| COc1ccc(-c2c(C)nc3sc(C(C)(C)C#N)nn23)cc1S(=O)(=O)N[C@H]1CC[C@@H](O)CC1 [Example 1-20] | > 80 |
| COc1ncc(-c2c(C)nc3sc(C(C)(C)O)nn23)cc1S(=O)(=O)N[C@H]1CC[C@@H](O)CC1 [Example 1-21] | ≤ 50 |
| CCOC(=O)C(C)(C)c1nn2c(-c3ccc(OC)c(S(=O)(=O)N[C@H]4CC[C@@H](O)CC4)c3)c(C)nc2s1 [Example 1-22] | > 80 |
| COC(=O)C(C)(C)c1nn2c(-c3cnc(OC)c(S(=O)(=O)N[C@H]4CC[C@@H](O)CC4)c3)c(C)nc2s1 [Example 1-23] | > 80 |
| COc1ncc(-c2c(C)nc3sc(C(C)(C)O)nn23)cc1S(=O)(=O)N[C@H]1CC[C@H](O)CC1 [Example 1-24] | ≤ 50 |
| Cc1nc2sc(C(C)(C)O)nn2c1-c1ccc(C(F)(F)F)c(S(=O)(=O)N[C@H]2CC[C@H](O)CC2)c1 [Example 1-25] | > 80 |
| Cc1nc2sc(C(C)(C)O)nn2c1-c1ccc(C(F)(F)F)c(S(=O)(=O)N[C@H]2CC[C@@H](O)CC2)c1 [Example 1-26] | > 80 |
| COc1ccc(-c2c(C)nc3sc(C(C)(C)O)cn23)cc1S(=O)(=O)C[C@H]1CC[C@@H](O)CC1 [Example 1-27] | ≤ 50 |

| SMILES | inhibition at 0.1 µM [%] |
| --- | --- |
| COc1ccc(-c2c(C)nc3sc(C(C)(C)OC)nn23)cc1S(=O)(=O)N[C@H]1CC[C@H](O)CC1 [Example 1-28] | > 80 |
| COC(C)(C)c1nn2c(-c3ccc(C(F)(F)F)c(S(=O)(=O)N[C@H]4CC[C@H](O)CC4)c3)c(C)nc2s1 [Example 1-29] | > 80 |
| Cc1nc2sc(C3CC3)nn2c1-c1ccc(C(F)(F)F)c(S(=O)(=O)N[C@H]2CC[C@H](O)CC2)c1 [Example 1-30] | > 80 |
| COc1ccc(-c2c(C)nc3sc(C4(C(F)(F)F)CC4)nn23)cc1S(=O)(=O)N[C@H]1CC[C@@H](O)CC1 [Example 1-31] | > 80 |
| Cc1nc2sc(C(C)(C)C)nn2c1-c1ccc(C(F)(F)F)c(S(=O)(=O)N[C@H]2CC[C@H](O)CC2)c1 [Example 1-32] | > 80 |
| Cc1nc2sc(C(C)(C)O)nn2c1-c1ccc(C(F)(F)F)c(S(=O)(=O)NC(C)(C)CO)c1 [Example 1-33] | > 80 |
| COc1ccc(-c2c(C)nc3sc(C(C)(C)O)nn23)cc1S(=O)(=O)C[C@H]1CC[C@@H](O)CC1 [Example 1-34] | 50 to 80 |
| COc1ccc(-c2c(C)nc3sc(C4CC4)nn23)cc1S(=O)(=O)NC(C)(C)CO [Example 1-35] | > 80 |
| COc1ccc(-c2c(C)nc3sc(C(C)(C)O)nn23)cc1S(=O)(=O)NC(C)(C)CO [Example 1-36] | 50 to 80 |
| COc1ccc(-c2c(C)nc3sc(C(C)(C)O)nn23)cc1S(=O)(=O)C1CC1 [Example 1-37] | 50 to 80 |
| COc1ccc(-c2c(C)nc3sc(C(C)(C)O)nn23)cc1S(=O)(=O)CC(C)(C)O [Example 1-38] | > 80 |
| COc1ccc(-c2c(C)nc3sc(C4(C#N)CC4)nn23)cc1S(=O)(=O)NC(C)(C)CO [Example 1-39] | ≤ 50 |
| COc1ccc(-c2c(C)nc3sc(C4(C#N)CC4)nn23)cc1S(=O)(=O)C1CC1 [Example 1-40] | ≤ 50 |
| COC(=O)C(C)(C)S(=O)(=O)c1cc(-c2c(C)nc3sc(C(C)(C)O)nn23)ccc1OC [Example 1-41] | 50 to 80 |
| COc1ccc(-c2c(C)nc3sc(C(C)(C)O)cn23)cc1S(=O)(=O)CC(C)(C)O [Example 1-42] | ≤ 50 |
| COc1ccc(-c2c(C)nc3sc(C(C)(C)OC)cn23)cc1S(=O)(=O)N[C@H]1CC[C@@H](O)CC1 [Example 1-43] | > 80 |
| COc1ccc(-c2c(C)nc3sc(C4(O)CCCC4)cn23)cc1S(=O)(=O)N[C@H]1CC[C@@H](O)CC1 [Example 1-44] | ≤ 50 |
| COc1ccc(-c2c(C)nc3sc(C4(OC)CCCC4)cn23)cc1S(=O)(=O)N[C@H]1CC[C@@H](O)CC1 [Example 1-45] | > 80 |
| COc1ccc(-c2c(C)nc3sc(C(C)C)cn23)cc1S(=O)(=O)N[C@H]1CC[C@@H](O)CC1 [Example 1-46] | > 80 |
| COc1ccc(-c2c(C)nc3sc(C4(OC)CC4)cn23)cc1S(=O)(=O)N[C@H]1CC[C@@H](O)CC1 [Example 1-47] | 50 to 80 |
| COc1ccc(-c2c(C)nc3sc(C4CC4)cn23)cc1S(=O)(=O)N[C@H]1CC[C@@H](O)CC1 [Example 1-48] | 50 to 80 |
| COc1ccc(-c2c(C)nc3sc(C(C)(C)C)cn23)cc1S(=O)(=O)N[C@H]1CC[C@@H](O)CC1 [Example 1-49] | > 80 |
| COc1ccc(-c2c(C)nc3sc(C(C)(C)OC)cn23)cc1S(=O)(=O)Nc1ccc(F)cc1 [Example 1-50] | > 80 |
| COc1ccc(-c2c(C)nc3sc(C)cn23)cc1S(=O)(=O)Nc1ccc(F)cc1 [Example 1-51] | 50 to 80 |
| COc1ccc(-c2c(C)nc3sccn23)cc1S(=O)(=O)Nc1ccc(F)cc1 [Example 1-52] | ≤ 50 |
| COc1ccc(-c2c(C)nc3sc(C(O)(C4CC4)C4CC4)nn23)cc1S(=O)(=O)CC(C)(C)O [Example 1-53] | > 80 |
